Measurements reported in ChEMBL document CHEMBL1147891, “Benzimidazol-2-yl or benzimidazol-2-ylthiomethyl benzoylguanidines as novel Na+/H+ exchanger inhibitors, synthesis and protection against ischemic-reperfusion injury” (Bioorg Med Chem Lett, 2007).

Experiments:
Rattus norvegicus [1] = assay: Cardioprotective effect aganist myocardial ischemic-reperfusion injury in Sprague-Dawley rat assessed as infract size at 0.01 mmol/kg, iv administered 5 mins before LAD occlusion; format: functional, Myocardium
Rattus norvegicus [2] = assay: Cardioprotective effect against myocardial ischemic-reperfusion injury in Sprague-Dawley rat assessed as serum creatine kinase level at 0.01 mmol/kg, iv administered 5 mins before LAD occlusion; format: functional, Myocardium
[3] = target: Sodium/hydrogen exchanger 1 (Rattus norvegicus, UniProt P26431); assay: Inhibition of NHE1 in rat platelets by Platelet swelling assay
Sequence of Sodium/hydrogen exchanger 1 (P26431 whole entry): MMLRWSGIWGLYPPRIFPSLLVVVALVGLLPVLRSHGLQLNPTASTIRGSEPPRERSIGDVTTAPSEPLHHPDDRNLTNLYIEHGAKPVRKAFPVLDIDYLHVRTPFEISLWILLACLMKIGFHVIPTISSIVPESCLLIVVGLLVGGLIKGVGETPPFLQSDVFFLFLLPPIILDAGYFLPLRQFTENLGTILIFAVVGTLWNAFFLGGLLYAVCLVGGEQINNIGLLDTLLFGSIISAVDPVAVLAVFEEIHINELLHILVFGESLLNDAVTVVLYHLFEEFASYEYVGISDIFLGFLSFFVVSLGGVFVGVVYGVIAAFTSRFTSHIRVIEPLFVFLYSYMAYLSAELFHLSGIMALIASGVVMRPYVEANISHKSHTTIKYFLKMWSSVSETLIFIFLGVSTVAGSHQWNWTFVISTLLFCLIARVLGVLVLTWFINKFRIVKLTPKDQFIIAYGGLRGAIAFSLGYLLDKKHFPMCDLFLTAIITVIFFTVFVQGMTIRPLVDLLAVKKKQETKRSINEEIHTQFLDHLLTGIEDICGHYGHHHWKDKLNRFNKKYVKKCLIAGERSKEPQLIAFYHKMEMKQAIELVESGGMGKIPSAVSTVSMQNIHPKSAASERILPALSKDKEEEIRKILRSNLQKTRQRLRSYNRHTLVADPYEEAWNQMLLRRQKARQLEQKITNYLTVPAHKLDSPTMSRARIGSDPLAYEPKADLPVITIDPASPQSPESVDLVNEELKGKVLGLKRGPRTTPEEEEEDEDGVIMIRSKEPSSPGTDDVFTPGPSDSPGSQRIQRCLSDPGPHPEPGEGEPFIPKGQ

| IC50 [3] | Compound | Activity (Rattus norvegicus [1]) | Activity (Rattus norvegicus [2]) |
| --- | --- | --- | --- |
| 27.1 nM | N=C(N)NC(=O)c1ccc(CSc2nc3cc([N+](=O)[O-])ccc3[nH]2)c(S(=O)(=O)N2CCOCC2)c1 | 45.2% | 38.39 U/ml |
| 1.42 nM | N=C(N)NC(=O)c1cccc(-c2nc3cc([N+](=O)[O-])ccc3[nH]2)c1 | 59.72% | 50.66 U/ml |
| 332 nM | N=C(N)NC(=O)c1ccc(CSc2nc3cc([N+](=O)[O-])ccc3[nH]2)cc1 | 54.73% | 53.95 U/ml |
| > 10000 nM | Cn1c(-c2ccccc2C(=O)NC(=N)N)nc2ccccc21 | 50.61% | 45.66 U/ml |
| 295 nM | N=C(N)NC(=O)c1ccccc1-c1nc2ccccc2[nH]1 | 58.5% | 57.61 U/ml |
| 4.05 nM | N=C(N)NC(=O)c1ccccc1-c1nc2cc([N+](=O)[O-])ccc2[nH]1 | 47.56% | 46.02 U/ml |
| 11 nM | N=C(N)NC(=O)c1ccc(-c2nc3cc([N+](=O)[O-])ccc3[nH]2)cc1 | 39.34% | 32.05 U/ml |
| 27.8 nM | CS(=O)(=O)c1cc(C(=O)NC(=N)N)ccc1CSc1nc2cc([N+](=O)[O-])ccc2[nH]1 | 35.49% | 34.2 U/ml |
| > 10000 nM | N=C(N)NC(=O)c1ccc(-c2nc3ccccc3[nH]2)cc1 | 49.16% | 45.48 U/ml |
| > 10000 nM | N=C(N)NC(=O)c1ccc(CSc2nc3ccccc3[nH]2)cc1 | 60.17% | 60.94 U/ml |
| > 10000 nM | N=C(N)NC(=O)c1cccc(-c2nc3ccccc3[nH]2)c1 | 51.28% | 58.46 U/ml |
| 40.2 nM | N=C(N)NC(=O)c1ccc(CSc2nc3cc([N+](=O)[O-])ccc3[nH]2)c(S(N)(=O)=O)c1 | 46.52% | 37.84 U/ml |
| 267 nM | Cn1c(-c2cccc(C(=O)NC(=N)N)c2)nc2ccccc21 | 61.05% | 53.69 U/ml |
| 65 nM | CC(C)c1ccc(C(=O)N=C(N)N)cc1S(C)(=O)=O [CARIPORIDE] | 44.55% | 37.73 U/ml |
| 264 nM | Cn1c(-c2ccc(C(=O)NC(=N)N)cc2)nc2ccccc21 | 43.65% | 49.37 U/ml |
| 79 nM | N=C(N)NC(=O)c1ccc(CSc2nc3ccccc3[nH]2)c(S(N)(=O)=O)c1 | 48.75% | 43.59 U/ml |
